In patent EP0166969A2, “Haemostyptic” (priority 1984, dated 1986):
“Also recorded” adds a separate entry of the source.

Key:
Schweineleber = test: Comparative haemostyptic efficacy of components, mixtures and esters in rat models and pig liver; type: in vivo, Ratten; details: qualitative
Text: Unter einem Hämostypticum versteht man Mittel zur Blutstillung, die sowohl die Blutungszeit als auch den Blutverlust bei mechanischen Verletzungen herabsetzen. Die Blutgerinnung ist ein in den letzten Jahren intensiv untersuchter komplexer Vorgang, der sich in verschiedenster Weise beeinflussen läßt. Die Blutstillung und der Blutverlust hängen wiederum in erster Linie vom Umfang und der Geschwindigkeit der Blutgerinnung ab, jedoch spielen hier auch noch weitere Faktoren mit hinein, die bisher noch nicht ausreichend untersucht und geklärt werden konnten. Eine besondere Schwierigkeit bei der Untersuchung von Hämostyptica ist die Erarbeitung von zuverlässigen und reproduzierbaren Versuchsbedingungen am Menschen und am Tier. Eine umfassende Zusammenstellung der bisher bekannten Methoden sowie die Beschreibung einer verbesserten Methode an der Ratte wird beschrieben in der Dissertation von Ennen 1981, am Institut für Pharmakologie, Toxikologie und Pharmazie der Tierärtzlichen Hochschule Hannover unter Leitung von Prof. Dr. K. Kaemmerer (Methodenbeitrag zur Bestimmung von Blutungszeit und Blutverlust bei Leberparenchymblutungen kleiner Versuchstiere). Im Rahmen dieser Untersuchungen wurden auch verschiedene bekannte Hämostasesysteme vergleichend untersucht. Zu den untersuchten Produkten gehörte auch das Hämostypticum Revici, welches von der Anmelderin seit Jahren vertrieben wird. […] Das Hämostypticum Revici enthält neben geringen Mengen von Zitronensäure, Wasserstoffperoxid und n-Butanol. […] Dabei dienten als Modelle in erster Linie die bereits von Ennen entwickelten Tiermodelle der Ratten sowie ähnliche Versuche an der Schweineleber. Die Untersuchungen wurden zusätzlich ausgedehnt auf mögliche Metaboliten und Zersetzungsprodukte der Zitronensäure, nämlich Cis-Aconitsäure, Acetondicarbonsäure und Itakonsäure.

Rattenleber = test: Bleeding time and blood loss in rats according to Ennen (1981), liver parenchymal bleeding; type: in vivo, Ratten; details: tested oral and IV, standard solutions suspended in 0,9% saline, route of the values not stated
Text: Unter einem Hämostypticum versteht man Mittel zur Blutstillung, die sowohl die Blutungszeit als auch den Blutverlust bei mechanischen Verletzungen herabsetzen. Die Blutgerinnung ist ein in den letzten Jahren intensiv untersuchter komplexer Vorgang, der sich in verschiedenster Weise beeinflussen läßt. Die Blutstillung und der Blutverlust hängen wiederum in erster Linie vom Umfang und der Geschwindigkeit der Blutgerinnung ab, jedoch spielen hier auch noch weitere Faktoren mit hinein, die bisher noch nicht ausreichend untersucht und geklärt werden konnten. Eine besondere Schwierigkeit bei der Untersuchung von Hämostyptica ist die Erarbeitung von zuverlässigen und reproduzierbaren Versuchsbedingungen am Menschen und am Tier. Eine umfassende Zusammenstellung der bisher bekannten Methoden sowie die Beschreibung einer verbesserten Methode an der Ratte wird beschrieben in der Dissertation von Ennen 1981, am Institut für Pharmakologie, Toxikologie und Pharmazie der Tierärtzlichen Hochschule Hannover unter Leitung von Prof. Dr. K. Kaemmerer (Methodenbeitrag zur Bestimmung von Blutungszeit und Blutverlust bei Leberparenchymblutungen kleiner Versuchstiere). Im Rahmen dieser Untersuchungen wurden auch verschiedene bekannte Hämostasesysteme vergleichend untersucht. Zu den untersuchten Produkten gehörte auch das Hämostypticum Revici, welches von der Anmelderin seit Jahren vertrieben wird. […] Das Hämostypticum Revici enthält neben geringen Mengen von Zitronensäure, Wasserstoffperoxid und n-Butanol. Da bei der Anwendung des Hämostypticums Revici immer wieder schwankende und nicht immer reproduzierbare Ergebnisse beobachtet wurden, wurden eingehende Untersuchungen über die Wirksamkeit aller drei Komponenten und Gemische derselben auf ihre Wirksamkeit hin untersucht. Dabei dienten als Modelle in erster Linie die bereits von Ennen entwickelten Tiermodelle der Ratten sowie ähnliche Versuche an der Schweineleber. Die Untersuchungen wurden zusätzlich ausgedehnt auf mögliche Metaboliten und Zersetzungsprodukte der Zitronensäure, nämlich Cis-Aconitsäure, Acetondicarbonsäure und Itakonsäure.
Die Wirksamkeit der Substanzen wurde sowohl oral als auch IV getestet mit Standardlösungen suspendiert in 0,9%-iger Kochsalzlösung bei Ratten nach Ennen (1981). Gemessen wurden Blutungszeit und Blutverlust in % der Abnahme. Tributylcitrat ergab eine Abnahme der Blutungszeit von 27% und eine Abnahme des Blutverlustes von 44%. Die entsprechenden Werte für Trihexylcitrat lagen bei 20 bzw. 24%. Die Werte für Aconit-tributylester bei 22 bzw. 16% und für Tricarballylsäure-tributylester bei 29 bzw. 8%.

[1] = Toxicity of the new esters (test not described); details: qualitative
[2] = Acute toxicity (LD50, oral tolerance) in the rat; type: in vivo; details: in vivo, applicant's own experiments
Protocol: (§1) Hierbei ist zu beachten, daß bei der Ratte als maximale Volumenbelastung 20 ml/kg gelten.

Ratte [3] = test: Acute toxicity (LD50, oral tolerance) in the rat; type: in vivo
Protocol: as §1

Ratte [4] = details: rat, in vivo, iv
Protocol: as §1

Schweine = test: Pig experiments: circulatory effect; type: in vivo; details: pigs; amount of n-Butanol present in Hämostypticum Revici, given alone
Text: Bei den Schweineversuchen hat sich beispielsweise gezeigt, daß die im Hämostypticum Revici vorhandene Menge n-Butanol für sich allein schon zu Kreislaufdepressionen führt. […] Die Wirksamkeit kann daher nicht dadurch erklärt werden, daß das TBC im Körper zu Zitronensäure und n-Butanol gespalten wird.

Ratte [5] = details: rat; Merck Index, 10th ed., no. 1513; cited from earlier work

Compound | hämostyptische Wirksamkeit (Schweineleber) | Abnahme der Blutungszeit (Rattenleber) | Abnahme des Blutverlustes (Rattenleber) | Toxizität [1] | further results
O=C(O)CC(=O)CC(=O)O [Acetondicarbonsäure] | praktisch wirkungslos | – | – | – | –
CCCCOC(=O)C=C(CC(=O)OCCCC)C(=O)OCCCC [Aconit-tributylester] | durchaus interessante und für die Praxis brauchbare Wirkung | 22% | 16% | niedriger Toxizität | –
O=C(O)/C=C(/CC(=O)O)C(=O)O [Cis-Aconitsäure] | praktisch wirkungslos | – | – | – | –
C=C(CC(=O)O)C(=O)O [Itakonsäure] | praktisch wirkungslos | – | – | – | –
CCCCOC(=O)CC(O)(CC(=O)OCCCC)C(=O)OCCCC [TBC, Tri-n-butylcitrat] | – | 27% | 44% | – | LD50 [2]: 20800 mg/kg; akute oder klinische manifeste Veränderungen (Ratte [3]; oral 10 ml/kg (printed as 10,4 mg/kg)): keinerlei akute oder klinische manifeste Veränderungen; akute oder klinische manifeste Veränderungen (Ratte [3]; oral 20 ml/kg (printed as 20,8 mg/kg)): keinerlei akute oder klinische manifeste Veränderungen; spontaner Exitus nach Infusion (Ratte [4]): 19,4 ml/kg
CCCCOC(=O)CC(CC(=O)OCCCC)C(=O)OCCCC [Tricarballylsäure-tributylester] | durchaus interessante und für die Praxis brauchbare Wirkung | 29% | 8% | niedriger Toxizität | –
CCCCCCOC(=O)CC(O)(CC(=O)OCCCCCC)C(=O)OCCCCCC [Trihexylcitrat] | – | 20% | 24% | niedriger Toxizität | –
O=C(O)CC(O)(CC(=O)O)C(=O)O [Zitronensäure] | praktisch wirkungslos | – | – | – | –
CCCCO [n-Butanol] | eine gewisse hämostyptische Wirksamkeit; also recorded: einen gewissen Effekt | – | – | – | Kreislaufwirkung (Schweine): Kreislaufdepressionen; LD50 (Ratte [5]): 4,36 g/kg
Wasserstoffperoxid [H202] | einen gewissen Effekt | – | – | – | –
